Laboratory results as given in patent US20180284095A1, “BIOMARKERS ASSOCIATED WITH LSD1 INHIBITORS AND USES THEREOF” (Oryzon Genomics, S.A., priority 2015, published 2018).

Assays:
Assay type in all cases: in vivo, mouse
[1] = test system: S100A8; assay: Microarray gene expression in brain, spleen and liver of Hsd:Athymic Nude-Foxn1nu mice (Example 7)
Procedure: (§1) Total RNA was extracted from samples using the RNeasy extraction kit (Qiagen). The quality and concentration of the RNA was analyzed using the Agilent 2100 bioanalyzer and NanoDrop™ ND-1000 (Thermo Scientific). Samples with RNA integrity number (RIN)<6.0 were discarded. Total RNA (0.5 μg) amplification and labelling with Cy3 or Cy5 was carried out using the Eberwein mRNA amplification procedure (Van Gelder et al, Proc Natl Acad Sci USA 1990, 87:1663-1667) employing the MessageAmp™ aRNA amplification kit from Ambion (Applied Biosystems) following the manufacturer's instructions with minor modifications. As hybridization controls, plant mRNAs were transcribed from a plasmid containing the Zea mays Xet (xyloglucan endo-transglycosylase) cDNA and from a plasmid containing the Zea mays Zmmyb42 cDNA, independently prepared Cy3 and Cy5 labelled aRNA from these two RNAs using the Eberwein mRNA amplification procedure (as disclosed in Cerdà et al, Gen Comp Endocrinol 2008, 156:470-481).
(§2) The Cy3- and Cy5-labelled cRNAs and spikes were combined and hybridized to the microarray described in Example 2.6 for 17 h at 60° C. using Agilent's gaskets G2534-60002, G2534A hybridization chambers and DNA Hybridization Oven G2545A, according to the manufacturer's instructions. More specifically, equal amounts of Cy3 and Cy5 labeled Xet aRNA as well as equal amounts of Cy3 and Cy5 labeled Zmmyb42 aRNA were spiked into each mixture hybridized to the array. Arrays were washed and raw data were obtained using Agilent's DNA Microarray Scanner G2505B and Feature Extraction software (v10.1). The raw fluorescence intensity data were processed using applicant's proprietary software, and consists in the following operations:
(§3) Data normalization was carried out by an improved version of the nonlinear Q-splines normalization method (Workman et al., Genome Biol 2002, 3(9):research0048.1-0048.16). Normalization results were presented graphically as MA plots, as first described by Dudoit et al (Dudoit et al, Statistica Sinica, 2002, 12:111-139). Each point corresponds to a probe of the DNA array. M values (vertical axis) are the log-differential expression ratios. A values (horizontal axis) are the log-intensities of the spots. M and A are calculated from the Cy5 and Cy3 intensity values as of each spot. The DNA Array data is normalized using an improved version of non-linear Q-Splines normalization described by Workman et al., Genome Biol 2002, 3(9):research0048.1-0048.16. This process is useful to correct the deviation of the M values from the statistical assumption that most of the spots have M=0 in MA plots. The method allows the adjustment of all M values to form a cloud centered at M=0 in all intensity ranges. The data used to calculate the normalization fitting curve is the totality of the raw measurement dataset, excluding the signals for the probes for the spiked-in plant RNA controls and negative controls. In order to be able to normalize properly the data among all the experiments, the probe-set must include an important group of genes that should have no change (M=0) in the experiment. The normalization function is then applied to all the data, including controls.
(§4) Normalized and log-transformed data were used to calculate log 2 (sample/control) and Fold Change (FC) values. No background subtraction was applied to the signal intensity values during data processing, permitting robust selection of differentially expressed genes with low expression levels at the cost of potential sub-estimation of change when intensity levels are close to the array background level.
(§5) Powered Compound 3, 4 or 5 was dissolved in a 20% solution of 2-hydroxypropyl-R-cyclodextrin in water at the appropriate concentrations, vortexed and placed in an ultrasonic bath for 5 minutes.
(§6) Hsd:Athymic Nude-Foxn1nu mice were maintained in air- and temperature-controlled cages with regular supply of water and food. A maximum of 6 mice/cage were raised. […]

[2] = test system: S100A9; assay: as above
Procedure: as §1, §2, §3, §4, §5, §6

[3] = test system: TUBB2C; assay: Microarray gene expression in brain, spleen and liver of Hsd:Athymic Nude-Foxn1nu mice (Example 7), housekeeping gene
Procedure: as §1, §2, §3, §4, §5, §6

[4] = test system: TUBB3; assay: as above
Procedure: as §1, §2, §3, §4, §5, §6

CN1CCN(C(=O)CN[C@H]2C[C@@H]2c2ccc(OCc3ccccc3)cc2)CC1 (racemic) [Compound 4, 2-(((trans)-2-(4-(benzyloxy)phenyl)cyclopropyl)amino)-1-(4-methylpiperazin-1-yl)ethan-1-one]
Hybridization signal sample_Cy5 ([1]; BRAIN, S100A8, 1 mg/kg): 106.74 | log2 (sample/control) ([1]; BRAIN, S100A8, 1 mg/kg vs VEH): −1.761 | Hybridization signal sample_Cy5 ([1]; BRAIN, S100A8, 3 mg/kg): 65.756 | log2 (sample/control) ([1]; BRAIN, S100A8, 3 mg/kg vs VEH): −2.35 | Hybridization signal sample_Cy5 ([1]; BRAIN, S100A8, 10 mg/kg): 46.781 | log2 (sample/control) ([1]; BRAIN, S100A8, 10 mg/kg vs VEH): −3.042 | Hybridization signal sample_Cy5 ([1]; LIVER, S100A8, 1 mg/kg): 220.788 | log2 (sample/control) ([1]; LIVER, S100A8, 1 mg/kg vs VEH): −0.8718 | Hybridization signal sample_Cy5 ([1]; LIVER, S100A8, 3 mg/kg): 211.114 | log2 (sample/control) ([1]; LIVER, S100A8, 3 mg/kg vs VEH): −1.181 | Hybridization signal sample_Cy5 ([1]; LIVER, S100A8, 10 mg/kg): 172.461 | log2 (sample/control) ([1]; LIVER, S100A8, 10 mg/kg vs VEH): −1.335 | Hybridization signal sample_Cy5 ([1]; SPLEEN, S100A8, 1 mg/kg): 6016.2 | log2 (sample/control) ([1]; SPLEEN, S100A8, 1 mg/kg vs VEH): −1.312 | Hybridization signal sample_Cy5 ([1]; SPLEEN, S100A8, 3 mg/kg): 1854.43 | log2 (sample/control) ([1]; SPLEEN, S100A8, 3 mg/kg vs VEH): −3.148 | Hybridization signal sample_Cy5 ([1]; SPLEEN, S100A8, 10 mg/kg): 1214.31 | log2 (sample/control) ([1]; SPLEEN, S100A8, 10 mg/kg vs VEH): −3.587 | Hybridization signal sample_Cy5 ([2]; BRAIN, S100A9, 1 mg/kg): 306.245 | log2 (sample/control) ([2]; BRAIN, S100A9, 1 mg/kg vs VEH): −2.143 | Hybridization signal sample_Cy5 ([2]; BRAIN, S100A9, 3 mg/kg): 132.716 | log2 (sample/control) ([2]; BRAIN, S100A9, 3 mg/kg vs VEH): −3.286 | Hybridization signal sample_Cy5 ([2]; BRAIN, S100A9, 10 mg/kg): 78.7372 | log2 (sample/control) ([2]; BRAIN, S100A9, 10 mg/kg vs VEH): −4.222 | Hybridization signal sample_Cy5 ([2]; LIVER, S100A9, 1 mg/kg): 666.426 | log2 (sample/control) ([2]; LIVER, S100A9, 1 mg/kg vs VEH): −1.192 | Hybridization signal sample_Cy5 ([2]; LIVER, S100A9, 3 mg/kg): 490.218 | log2 (sample/control) ([2]; LIVER, S100A9, 3 mg/kg vs VEH): −1.632 | Hybridization signal sample_Cy5 ([2]; LIVER, S100A9, 10 mg/kg): 386.758 | log2 (sample/control) ([2]; LIVER, S100A9, 10 mg/kg vs VEH): −1.928 | Hybridization signal sample_Cy5 ([2]; SPLEEN, S100A9, 1 mg/kg): 13748.6 | log2 (sample/control) ([2]; SPLEEN, S100A9, 1 mg/kg vs VEH): −1.579 | Hybridization signal sample_Cy5 ([2]; SPLEEN, S100A9, 3 mg/kg): 3824.62 | log2 (sample/control) ([2]; SPLEEN, S100A9, 3 mg/kg vs VEH): −3.541 | Hybridization signal sample_Cy5 ([2]; SPLEEN, S100A9, 10 mg/kg): 2502.64 | log2 (sample/control) ([2]; SPLEEN, S100A9, 10 mg/kg vs VEH): −4.161 | Hybridization signal sample_Cy5 ([3]; BRAIN, 1 mg/kg): 10016.7 | log2 (sample/control) ([3]; BRAIN, 1 mg/kg vs VEH): −0.04912 | Hybridization signal sample_Cy5 ([3]; BRAIN, 3 mg/kg): 9877.42 | log2 (sample/control) ([3]; BRAIN, 3 mg/kg vs VEH): −0.06585 | Hybridization signal sample_Cy5 ([3]; BRAIN, 10 mg/kg): 11991.7 | log2 (sample/control) ([3]; BRAIN, 10 mg/kg vs VEH): −0.04291 | Hybridization signal sample_Cy5 ([3]; LIVER, 1 mg/kg): 4327.04 | log2 (sample/control) ([3]; LIVER, 1 mg/kg vs VEH): 0.2971 | Hybridization signal sample_Cy5 ([3]; LIVER, 3 mg/kg): 3201.33 | log2 (sample/control) ([3]; LIVER, 3 mg/kg vs VEH): 0.1069 | Hybridization signal sample_Cy5 ([3]; LIVER, 10 mg/kg): 3143.68 | log2 (sample/control) ([3]; LIVER, 10 mg/kg vs VEH): 0.3292 | Hybridization signal sample_Cy5 ([3]; SPLEEN, 1 mg/kg): 13305.5 | log2 (sample/control) ([3]; SPLEEN, 1 mg/kg vs VEH): −0.3124 | Hybridization signal sample_Cy5 ([3]; SPLEEN, 3 mg/kg): 11689.6 | log2 (sample/control) ([3]; SPLEEN, 3 mg/kg vs VEH): −0.4339 | Hybridization signal sample_Cy5 ([3]; SPLEEN, 10 mg/kg): 6541.2 | log2 (sample/control) ([3]; SPLEEN, 10 mg/kg vs VEH): −1.316 | Hybridization signal sample_Cy5 ([4]; BRAIN, TUBB3, 1 mg/kg): 4992.04 | log2 (sample/control) ([4]; BRAIN, TUBB3, 1 mg/kg vs VEH): −0.03825 | Hybridization signal sample_Cy5 ([4]; BRAIN, TUBB3, 3 mg/kg): 5129.04 | log2 (sample/control) ([4]; BRAIN, TUBB3, 3 mg/kg vs VEH): 0.07852 | Hybridization signal sample_Cy5 ([4]; BRAIN, TUBB3, 10 mg/kg): 5941.88 | log2 (sample/control) ([4]; BRAIN, TUBB3, 10 mg/kg vs VEH): −0.1778 | Hybridization signal sample_Cy5 ([4]; LIVER, TUBB3, 1 mg/kg): 91.4818 | log2 (sample/control) ([4]; LIVER, TUBB3, 1 mg/kg vs VEH): −0.409 | Hybridization signal sample_Cy5 ([4]; LIVER, TUBB3, 3 mg/kg): 66.7291 | log2 (sample/control) ([4]; LIVER, TUBB3, 3 mg/kg vs VEH): −0.2432 | Hybridization signal sample_Cy5 ([4]; LIVER, TUBB3, 10 mg/kg): 103.99 | log2 (sample/control) ([4]; LIVER, TUBB3, 10 mg/kg vs VEH): 0.6811 | Hybridization signal sample_Cy5 ([4]; SPLEEN, TUBB3, 1 mg/kg): 76.0246 | log2 (sample/control) ([4]; SPLEEN, TUBB3, 1 mg/kg vs VEH): 0.2314 | Hybridization signal sample_Cy5 ([4]; SPLEEN, TUBB3, 3 mg/kg): 114.188 | log2 (sample/control) ([4]; SPLEEN, TUBB3, 3 mg/kg vs VEH): 0.3352 | Hybridization signal sample_Cy5 ([4]; SPLEEN, TUBB3, 10 mg/kg): 154.437 | log2 (sample/control) ([4]; SPLEEN, TUBB3, 10 mg/kg vs VEH): 0.9169
